± gives the expanded uncertainty stated by the source.
Experiment: xn = mol fraction of the nth substance listed
Settings: 101.3 kPa, Liquid, Vibrating tube method

CCOS(=O)(=O)[O-].CCn1cc[n+](C)c1 [1-ethyl-3-methylimidazolium ethyl sulfate] + O
mass density [kg/m3]
Settings	293.15 K	298.15 K	303.15 K	308.15 K	313.15 K	318.15 K
x2 = 0	1242.4 ± 2.4	1239.4 ± 2.4	1236.3 ± 2.4	1233.3 ± 2.3	1230.2 ± 2.3	1227.2 ± 2.3
x2 = 0.0514	1241.4 ± 2.3	1238.3 ± 2.3	1235.2 ± 2.3	1232.2 ± 2.3	1229.1 ± 2.3	1226.1 ± 2.3
x2 = 0.13	1239.8 ± 2.2	1236.8 ± 2.2	1233.6 ± 2.2	1230.6 ± 2.2	1227.4 ± 2.2	1224.4 ± 2.2
x2 = 0.1783	1238.8 ± 2.2	1235.7 ± 2.2	1232.6 ± 2.2	1229.5 ± 2.2	1226.3 ± 2.2	1223.3 ± 2.2
x2 = 0.2168	1237.8 ± 2.2	1234.7 ± 2.2	1231.5 ± 2.2	1228.5 ± 2.2	1225.4 ± 2.2	1222.3 ± 2.2
x2 = 0.2642	1236.4 ± 2.2	1233.3 ± 2.2	1230.2 ± 2.2	1227.1 ± 2.2	1223.9 ± 2.2	1220.8 ± 2.2
x2 = 0.3054	1235 ± 2.2	1232 ± 2.1	1228.8 ± 2.1	1225.8 ± 2.1	1222.6 ± 2.1	1219.5 ± 2.1
x2 = 0.3568	1233 ± 2.1	1230 ± 2.1	1226.9 ± 2.1	1223.9 ± 2.1	1220.7 ± 2.1	1217.6 ± 2.1
x2 = 0.4008	1231.2 ± 2.1	1228 ± 2.1	1225 ± 2.1	1221.9 ± 2.1	1218.7 ± 2.1	1215.6 ± 2.1
x2 = 0.4613	1228.1 ± 2.1	1225.2 ± 2.1	1222 ± 2.1	1218.9 ± 2.1	1215.6 ± 2.1	–
x2 = 0.5002	1225.9 ± 2.1	1222.9 ± 2.2	1219.7 ± 2.2	1216.6 ± 2.2	1213.4 ± 2.2	–
x2 = 0.5584	1221.8 ± 2.2	1218.8 ± 2.2	1215.6 ± 2.2	1212.4 ± 2.2	1209.2 ± 2.2	–
x2 = 0.6124	1217.1 ± 2.3	1213.9 ± 2.3	1210.8 ± 2.3	1207.6 ± 2.3	1204.4 ± 2.3	–
x2 = 0.6698	1210.7 ± 2.4	1207.4 ± 2.4	1204.1 ± 2.4	1200.9 ± 2.4	1197.6 ± 2.4	–
x2 = 0.7125	1204.3 ± 2.7	1200.8 ± 2.7	1197.6 ± 2.7	1194.3 ± 2.7	1190.9 ± 2.7	–
x2 = 0.7635	1194.2 ± 3	1190.4 ± 3	1187.1 ± 3	1184 ± 3.1	1180.6 ± 3.1	–
x2 = 0.8006	1184.2 ± 3.9	1180.5 ± 3.9	1177.2 ± 3.9	1173.6 ± 3.9	1170.3 ± 3.9	–
x2 = 0.8497	1165.4 ± 5.1	1162.1 ± 5.1	1158.8 ± 5	1155.5 ± 5.1	1152.3 ± 5	–
x2 = 0.8963	1139.3 ± 12	1135.6 ± 12	1132.8 ± 12	1129 ± 12	1126 ± 12	–
